Experimental data taken from patent US20230167058A1, “GPX4 COMPOUNDS AND COMPOSITIONS AND METHODS OF TREATMENT USING SAME” (THE TRUSTEES OF COLUMBIA UNIVERSITY IN THE CITY OF NEW YORK, priority 2020, published 2023).

Experiments:
GPX4 = target: T1, GPX4 (Homo sapiens, UniProt P36969, U73C); assay: Microscale thermophoresis (MST) binding to GPX4; conditions: Table 1
T1 sequence (P36969 33-197 U73C): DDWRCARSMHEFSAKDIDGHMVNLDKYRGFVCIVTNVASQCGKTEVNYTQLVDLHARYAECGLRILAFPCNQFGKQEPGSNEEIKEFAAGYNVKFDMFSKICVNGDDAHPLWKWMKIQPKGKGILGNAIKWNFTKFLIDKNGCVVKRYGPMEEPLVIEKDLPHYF
Description: Therefore, we applied a strategy of computer-facilitated design, based on MD simulation (Desmond) and Glide docking (Schrödinger Suite), and experimental high-throughput screening of a lead-optimized compound library of 10,000 compounds (FIGS. 6A-6E). All candidates were first evaluated by thermal denaturation assay and microscale thermophoresis (MST) to validate binding to GPX4 (Table 1). Surface plasmon resonance (SPR) and isothermal titration calorimetry (ITC) were then applied to precisely measure their binding kinetics and affinities, while ^1H-^15N heteronuclear single-quantum coherence (HSQC) NMR spectroscopy informed us of binding sites. We optimized two GPX4-specific activity assays to examine enzymatic inhibitory effects of hit compounds—LC-MS-based substrate/product monitoring and an NADPH-coupled assay. […] Some L880 analogues were also synthesized and tested (Table 2).

[1] = target: T2, cellular GPX4 in HT1080 cell lysate (Homo sapiens, UniProt P36969); assay: NADPH-coupled cellular GPX4-specific activity, HT1080 cell lysate; type: biochemical; conditions: 500 μM LOC1886 added to lysate
T2 construct: endogenous in cells; host or cells: HT-1080 (ATCC), whole-cell lysate
T2 sequence (P36969 1-197): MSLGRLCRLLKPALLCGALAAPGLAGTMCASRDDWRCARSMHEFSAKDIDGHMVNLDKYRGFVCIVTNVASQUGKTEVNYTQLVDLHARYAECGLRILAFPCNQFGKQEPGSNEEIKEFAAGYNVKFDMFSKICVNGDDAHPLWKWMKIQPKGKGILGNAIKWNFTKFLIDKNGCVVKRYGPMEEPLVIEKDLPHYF
Method: We applied a NADPH-coupled cellular GPX4 enzymatic activity assay as previously reported with minor modifications (Roveri et al. 1994). Oxidized glutathione, generated by GPX4 during reducing its specific phospholipid hydroperoxides substrate, was reduced by Glutathione Reductase at the expense of NADPH, the decrease in the characteristic absorbance of which at 340 nm was monitored and quantified as GPX4 activity. […] The concentration of protein in the lysate was determined using BCA assay kit using BSA as standards. […] Absorbance of NADPH at 340 nm was determined kinetically at 1 min interval over the 20 min time. […] Results were quantified using GraphPad Prism 9.
We applied a NADPH-coupled cellular GPX4 enzymatic activity assay as previously reported (Roveri et al. 1994). Oxidized glutathione, generated by GPX4 during reducing its specific phospholipid hydroperoxides substrate, was reduced by Glutathione Reductase at the expense of NADPH, the decrease in the characteristic absorbance of which at 340 nm was monitored and quantified as GPX4 activity. […] The concentration of protein in the lysate was determined using BCA assay kit using BSA as standards. […]

- MST (GPX4): positive
- Kd (GPX4; read-out: MST Kd): 100 µM
Compound: COc1cccc2[nH]c(C(=O)n3ccnc3)cc12 [LOC1886]
- capability of cellular GPX4 to reduce phospholipid hydroperoxides [1]: inhibited the capability of cellular GPX4
